{
  "source": "patent US20220088204A1",
  "about": "“ANTICANCER DRUGS AND METHODS OF MAKING AND USING SAME” (YALE UNIVERSITY, priority 2019, published 2022)",
  "key": {"[1]": {"tested_on": "PEO1 ovarian cancer cells", "assay": "pH-dependent cell growth inhibition, transient treatment", "assay_type": "cell-based", "settings": "pH 7.4 vs pH 6.2", "protocol": "FIG. 9 depicts pH-dependent cell growth inhibition of PEO1 ovarian cancer cells in culture, treated transiently with various prodrugs of the invention, as described above.\nFIG. 10 depicts pH-dependent cell growth inhibition of PEO1 ovarian cancer cells in culture, treated transiently with an anticancer kinase inhibitor drug, Osimertinib, or a compound of the invention, based on an active core of that drug, YU253673.\n(§1) In order to evaluate pH-dependent activity, treatments are performed at atypical cell culture conditions. […] Several cell lines have been evaluated using this method and for each, cell seeding density and treatment duration is independently experimentally determined. Each experiment is normalized to sham and complete activity controls for each pH condition.\nSimilar results have been obtained from pH-dependent cell growth inhibition assays with other classes of Drug using the prodrug approach."}, "[2]": {"assay": "pKA of the ionizable group", "assay_type": "physicochemical", "settings": "read-out: acidic pKA of the carboxyl group", "text": "The Henderson-Hasselbalch equation allows for calculating the neutral fraction of an ionizable drug at healthy tissue vs. tumor extracellular pH, and thus predicting the associated cell-permeable fractions. […] The carboxyl group of YU241528 has an acidic pKA of ˜4.4, so the predicted membrane permeable fraction is ˜8-fold less at a pH of 7.4 than at 6.5."}, "[3]": {"tested_on": "HeLa cells", "assay": "pH-dependent cell uptake by flow cytometry", "assay_type": "cell-based", "settings": "HeLa cells in suspension, 5 μM, 1 hour, pH 7.4 vs pH 6.5", "text": "FIGS. 5A-5B depict representative flow cytometry traces of pH-dependent cell treatments. […] Normalized cell counts (Y-axes) are plotted vs. doxorubicin fluorescence intensity per cell (X-axes)."}, "[4]": {"assay": "Reductive activation / drug release in 5 mM GSH (simulated cytosol), LCMS", "assay_type": "in vitro ADME", "settings": "PBS containing 5 mM GSH, PBS pH 7.4, 5 mM GSH, 37° C., read-out: t1/2 of reduction of the disulfide", "protocol": "In certain embodiments, the prodrug releases the active form of the drug once inside a cancer cell. Once inside the cell, drug release can be triggered by reduction of the disulfide bond in the linker. To evaluate the reductive activation of drug release, 50 μM YU241528 in a solution of PBS, pH 7.4, containing 5 mM GSH (a typical intracellular concentration of the predominant biological reducing agent) was incubated at 37° C. Aliquots were taken at regular intervals and analyzed by LCMS."}, "[5]": {"assay": "Blood levels after tail vein injection", "assay_type": "in vivo, adult female balb/c mice", "protocol": "Given that the drug's distribution and clearance can be expected to be substantially complete by about 6 hours after administration, in certain embodiments the peak intracellular dose is achieved long before this process might interfere to a significant degree, even assuming the altered metabolite is indeed compromised in its activity. […] In certain embodiments, the serum stability of YU241528 allows for effective therapy. […] In certain embodiments, the prodrug undergoes a different elimination path, as hepatobiliary elimination of weakly-ionic organic substances is sensitive to charge, size, and lipophilicity."}, "[6]": {"assay": "Serum stability of prodrug in 20% mouse serum (LCMS, 490 nm)", "assay_type": "in vitro ADME", "settings": "37° C.", "protocol": "FIG. 4A depicts liquid chromatography data showing the stability of YU241528 in serum.\nThe prodrug strategies of this invention are thought to impart their benefits during the distribution and cell uptake steps of anticancer therapy. In certain embodiments, a prodrug is stable in the blood for a period sufficient to allow for cell uptake and systemic clearance. To test this, 50 μM YU241528 in a solution of PBS, pH 7.4, containing 20% mouse serum was incubated at 37° C. At regular intervals, aliquots were taken and mixed with 2 volumes of ethanol to precipitate serum proteins, then centrifuged. Supernatants were analyzed by LCMS. […] The predominant peak was identified as YU241528 by mass spectrometry."}, "[7]": {"tested_on": "MDA-MB-231 breast cancer cells", "assay": "pH-dependent cell growth inhibition, CellTiter-Glo", "assay_type": "cell-based, Human", "settings": "6 hours treatment at pH 7.4 vs pH 6.2, 72 hours growth", "protocol": "Cells treated for 6 hours at pH 7.4 (normal physiological pH, X traces) or pH 6.2 (acidic solid tumor pH, Y traces) were subsequently allowed to grow in normal growth medium for 72 hours, then cell viability was evaluated using the CellTiter-Glo assay kit (Promega). Normalized percent cell growth inhibition is plotted on the left side of each panel and IC50 values reported at each pH from non-linear regression analysis.\nas §1\nHuman MDA-MB-231 breast cancer cells seeded at low density on tissue culture treated 384-well plates, allowed to adhere and grow in serum-supplemented growth medium for 24 hours, then treated under pH-controlled conditions for 6 hours, and finally washed and grown in fresh growth media for 72 hours were assessed for cell survival using the CellTiter-Glo assay system (Promega) (FIG. 6)."}, "[8]": {"assay": "Body weight of treated tumor-bearing mice", "assay_type": "in vivo, Balb/c mice", "settings": "IV once daily for 5 days, mice with EMT-6 flank tumors", "text": "FIG. 7 depicts representative in vivo study on the efficacy and toxicity of compounds of the invention. […] Mean tumor volume and mean body weight graphs are shown for groups of 10 tumor-bearing mice."}, "[9]": {"settings": "cited from earlier work"}},
  "note": "Entries after “also recorded” stand apart in the source; their conditions may differ.",
  "data": [
    {"molecule": "C=CC(=O)Nc1cc(Nc2nccc(-c3cn(C)c4ccccc34)n2)c(OC)cc1N(C)CCN(C)C", "note": "[Osimertinib]", "values": [
      {"measurement": "pH-dependent bias of cell growth inhibition", "setting": "[1]", "result": "slightly lower IC50 value at healthy pH 7.4"}
    ]},
    {"molecule": "COc1cccc2c1C(=O)c1c(O)c3c(c(O)c1C2=O)C[C@@](O)(C(=O)CO)C[C@@H]3O[C@H]1C[C@H](NC(=O)OCCSSCc2ccc(C(=O)O)cc2)[C@H](O)[C@H](C)O1", "note": "[YU241528]", "values": [
      {"measurement": "pKa", "setting": "[2]", "result": "~4.4"},
      {"measurement": "pH preference of cell uptake", "setting": "[3]", "result": "preferentially taken up by cells at cancerous pH 6.5 versus cells at normal pH 7.4"},
      {"measurement": "half-life at 50 μM", "setting": "[4]", "result": "~2.7", "unit": "min"},
      {"measurement": "level in the blood at 6 hours post injection", "setting": "[5]; 6 hours", "result": "detectable levels"},
      {"measurement": "level in the blood at 24 hours post injection", "setting": "[5]; 24 hours", "result": "undetectable"},
      {"measurement": "half-life", "setting": "[5]; female, balb/c, mouse, blood, intravenous, read-out: non-compartmental half-life in blood (converted)", "result": "~1", "unit": "h"},
      {"measurement": "release of free doxorubicin in serum", "setting": "[6]; 50 μM, 20% mouse serum, over 6 hours of incubation", "result": "no active doxorubicin is released; also recorded: no free doxorubicin was detected"},
      {"measurement": "half-life at 50 μM", "setting": "[6]; mouse, 20% mouse serum in PBS, pH 7.4, 50 μM, PBS pH 7.4, 20% mouse serum, read-out: t1/2 of interaction with serum", "result": "> 6", "unit": "h"}
    ]},
    {"molecule": "COc1cccc2c1C(=O)c1c(O)c3c(c(O)c1C2=O)C[C@@](O)(C(=O)CO)C[C@@H]3O[C@H]1C[C@H](NC(=O)OCCSSCCCCCCCC(=O)O)[C@H](O)[C@H](C)O1", "note": "[YU241531]", "values": [
      {"measurement": "pH-dependent bias of cell growth inhibition", "setting": "[7]", "result": "greater growth inhibition at acidic tumor pH"},
      {"measurement": "weight loss (mean body weight) compared to sham treated controls", "setting": "[8]", "result": "no detectable weight loss"}
    ]},
    {"molecule": "COc1cccc2c1C(=O)c1c(O)c3c(c(O)c1C2=O)C[C@@](O)(C(=O)CO)C[C@@H]3O[C@H]1C[C@H](NC(=O)OCCSSCCCc2c(F)c(F)c(O)c(F)c2F)[C@H](O)[C@H](C)O1", "note": "[YU244206]", "values": [
      {"measurement": "pH-dependent bias of cell growth inhibition", "setting": "[7]", "result": "greater growth inhibition at acidic tumor pH"},
      {"measurement": "weight loss (mean body weight) compared to sham treated controls", "setting": "[8]", "result": "no detectable weight loss"}
    ]},
    {"molecule": "COc1cccc2c1C(=O)c1c(O)c3c(c(O)c1C2=O)C[C@@](O)(C(=O)CO)C[C@@H]3O[C@H]1C[C@H](N)[C@H](O)[C@H](C)O1", "note": "[doxorubicin, reference compound]", "values": [
      {"measurement": "pH-dependent bias of cell growth inhibition", "setting": "[7]", "result": "greater growth inhibition at basic healthy pH"},
      {"measurement": "pH preference of cell uptake", "setting": "[3]", "result": "greater uptake into cells at normal physiologic pH 7.4 than into cells at cancerous pH 6.5"},
      {"measurement": "basic pKA of the amine group", "setting": "[9]", "result": "~8"}
    ]}
  ]
}
